Patent publication US9108959B2, “Process for the preparation of an orexin receptor antagonist” (Merck Sharp & Dohme Corp., priority 2011, dated 2015)

Assay: relative thermodynamic stability of crystalline forms (slurry of equal amounts of the two forms in EtOH at various temperatures)
Type: physicochemical
Details: for temperatures at which the form is the thermodynamically most stable crystalline form: enantiotropically related forms
Description: Anhydrous form I and Anhydrous form II are enatiotropically related. […] The transition temperature between anhydrous form I and anhydrous form II was determined by slurring a mixture containing equal amounts of the two forms in EtOH at various temperatures. The transition temperature between anhydrous form I and anhydrous form II is between 35 and 40° C. […] Anhydrous Form II can be synthesized using a crystallization process that is more efficient and results in improved particle size and morphology control relative to anhydrous form I. Anhydrous form II has better crystallinity, better filtration properties and gives better purity rejection than anhydrous form I. Anhydrous form II has better processability for preparing formulations than Anhydrous form I.

Row | SMILES | temperatures at which the form is the thermodynamically most stable crystalline form [°C] | stability of crystalline phase (at 25° C.)
1 | Cc1ccc(-n2nccn2)c(C(=O)N2CCN(c3nc4cc(Cl)ccc4o3)CC[C@H]2C)c1 [Anhydrous form II, [(7R)-4-(5-chloro-1,3-benzoxazol-2-yl)-7-methyl-1,4-diazepan-1-yl][5-methyl-2-(2H-1,2,3-triazol-2-yl)phenyl]methanone] | ≥ 40 | –
2 | Cc1ccc(-n2nccn2)c(C(=O)N2CCN(c3nc4cc(Cl)ccc4o3)CC[C@H]2C)c1 [Anhydrous form I, [(7R)-4-(5-chloro-1,3-benzoxazol-2-yl)-7-methyl-1,4-diazepan-1-yl][5-methyl-2-(2H-1,2,3-triazol-2-yl)phenyl]methanone] | ≤ 35 | most stable crystalline phase
